From patent US20220387411A1, “TARGETED AUTOPHAGY CONJUGATES AND METHODS” (Frontier Medicines Corporation, priority 2019, published 2022) come the findings set out here.

In the assay the target is T1, Recombinant pure human SQSTM1 protein (Homo sapiens, UniProt Q13501).
T1 construct: purchased Origene
Put plainly: Inhibition of IA-Rhodamine labeling of SQSTM1 (gel-based, densitometry). It counts as binding. Particulars: 50 μM of test compound (initial screen); 30 min at 37° C., then 100 nM IA-Rhodamine 1 hour; inhibition of target labeling by densitometry. How it is done:
Recombinant pure human SQSTM1 protein was purchased from Origene. SQSTM1 protein (0.21 μg) was diluted into 50 μL of PBS and 1 μL of either DMSO (vehicle) or covalently acting small molecule (test compound) to achieve the desired concentration. After 30 min. at 37° C., the samples were treated with 100 nM IA-Rhodamine (tetramethylrhodamine-5-iodoacetamide dihydroiodide; Setareh Biotech, 6222, prepared in anhydrous DMSO) for 1 hour at room temperature. Samples were then diluted with 20 μL of 4× reducing Laemmli SDS sample loading buffer (Alfa Aesar) and heated at 90° C. for 5 min. The samples were separated on precast 4-20% Criterion TGX gels (Bio-Rad Laboratories, Inc.). Fluorescent imaging was performed on a ChemiDoc MP instrument (Bio-Rad Laboratories, Inc.), and inhibition of target labeling was assessed by densitometry using ImageJ software. The initial screen was performed using 50 μM of test compound.

T1 sequence (Q13501 whole entry): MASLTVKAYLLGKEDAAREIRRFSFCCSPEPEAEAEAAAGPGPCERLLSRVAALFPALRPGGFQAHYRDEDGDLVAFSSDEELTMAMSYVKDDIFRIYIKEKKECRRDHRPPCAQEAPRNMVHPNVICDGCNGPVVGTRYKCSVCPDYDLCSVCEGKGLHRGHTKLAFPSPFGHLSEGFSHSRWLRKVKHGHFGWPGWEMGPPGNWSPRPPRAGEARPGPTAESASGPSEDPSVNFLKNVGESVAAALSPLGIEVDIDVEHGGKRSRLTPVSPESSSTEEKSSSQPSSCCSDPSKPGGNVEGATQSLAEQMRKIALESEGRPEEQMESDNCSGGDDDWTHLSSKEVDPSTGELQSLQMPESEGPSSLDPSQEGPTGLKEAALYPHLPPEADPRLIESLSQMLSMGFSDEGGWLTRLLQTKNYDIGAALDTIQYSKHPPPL

As for `O=C(CCl)N(Cc1ccccc1)C1CCCC[C@H]1CO` (stereo in doubt) [Compound 3, N-benzyl-2-chloro-N-(cis-2-(hydroxymethyl)cyclohexyl)acetamide], the inhibition at 50 µM amounted to 58%.

Turning to `O=C(CCl)N(Cc1ccccc1)C1CCCCC1` [Compound 2, N-benzyl-2-chloro-N-cyclohexylacetamide], the inhibition at 50 µM came out at 50%.

With `O=C(CCl)N(Cc1ccccc1)[C@H]1CCC[C@@H]1O` [Compound 4, N-benzyl-2-chloro-N-((1S,2S)-2-hydroxycyclopentyl)acetamide], the inhibition at 50 µM turned out to be 18%.

Regarding `O=C(CCl)N(Cc1ccccc1)[C@H]1COC[C@@H]1O` [Compound 5, N-benzyl-2-chloro-N-((3S,4R)-4-hydroxytetrahydrofuran-3-yl)acetamide], the “% inhibition” value is listed as 25%.

With `CC(C)(C)OC(=O)N1CCC(N(C(=O)CCl)C2CC2)CC1` [Compound 6, Tert-butyl 4-(2-chloro-N-cyclopropylacetamido)piperidine-1-carboxylate], the inhibition at 50 µM turned out to be 56%.

For the molecule `CC(C)(C)OC(=O)N1CCC(N(C(=O)CCl)C2CCOCC2)CC1` [Compound 7, Tert-butyl 4-(2-chloro-N-(tetrahydro-2H-pyran-4-yl)acetamido)piperidine-1-carboxylate], the inhibition at 50 µM amounted to 61%.

With `CC(C)N(C(=O)CCl)C1CCCN(C(=O)OC(C)(C)C)CC1` (stereo not drawn) [Compound 8, Tert-butyl 4-(2-chloro-N-isopropylacetamido)azepane-1-carboxylate], the inhibition at 50 µM worked out at 50%.

`COC(=O)c1ccc(CN(C(=O)CCl)C2CCN(C(=O)OC(C)(C)C)CC2)[nH]1` [Compound 9, Tert-butyl 4-(2-chloro-N-((5-(methoxycarbonyl)-1H-pyrrol-2-yl)methyl)acetamido) piperidine-1-carboxylate]: the inhibition at 50 µM worked out at 64%.

In the case of `O=C(CCl)N(Cc1ccccc1)[C@H]1COC[C@@H]1O` [Compound 10, N-benzyl-2-chloro-N-[(3S,4R)-4-hydroxytetrahydrofuran-3-yl]acetamide], the inhibition at 50 µM worked out at 17%.

Take `O=C1CC(N(Cc2ccccc2)C(=O)CCl)CN1Cc1ccccc1` (stereo not drawn) [Compound 11, N-benzyl-N-(1-benzyl-5-oxo-pyrrolidin-3-yl)-2-chloro-acetamide]: the inhibition at 50 µM was determined as 57%.

As for `C[C@H]1CN(C(=O)OC(C)(C)C)CCCN1C(=O)CCl` [Compound 12, (S)-tert-butyl 4-(2-chloroacetyl)-3-methyl-1,4-diazepane-1-carboxylate], the “% inhibition” value is reported as “not active”.

Regarding `CC1CCCCCN1C(=O)CCl` (stereo not drawn) [Compound 13, 2-chloro-1-(2-methylazepan-1-yl)ethan-1-one], the inhibition at 50 µM is 49%.

For the molecule `CCN1CCCN(C(=O)CCl)CC1` [Compound 14, 2-chloro-1-(4-ethyl-1,4-diazepan-1-yl)ethan-1-one], the inhibition at 50 µM was found to be 38%.

On to `O=C(CCl)N1CCCC(O)CC1` (stereo not drawn) [Compound 15, 2-chloro-1-(4-hydroxyazepan-1-yl)ethan-1-one], for which the inhibition at 50 µM stood at 29%.

Turning to `O=C(CCl)N1CCCN(c2ccc(F)cn2)CC1` [Compound 16, 2-chloro-1-(4-(5-fluoropyridin-2-yl)-1,4-diazepan-1-yl)ethanone], the inhibition at 50 µM is 20%.

As to `COC(=O)N1CCCN(C(=O)CCl)CC1` [Compound 17, Methyl 4-(2-chloroacetyl)-1,4-diazepane-1-carboxylate], the inhibition at 50 µM was determined as 9%.

For the molecule `CC(C)(C)OC(=O)N1CCN(C(=O)CCl)CC(O)C1` (stereo not drawn) [Compound 18, Tert-butyl 4-(2-chloroacetyl)-6-hydroxy-1,4-diazepane-1-carboxylate], the inhibition at 50 µM stood at 21%.

On to `O=C(CCl)N1CCCC(F)CC1` (stereo not drawn) [Compound 20, 2-chloro-1-(4-fluoroazepan-1-yl)ethanone], for which the inhibition at 50 µM came to 9%.

As to `CC1CCCN(C(=O)CCl)CC1` (stereo not drawn) [Compound 21, 2-chloro-1-(4-methylazepan-1-yl)ethanone], the inhibition at 50 µM is 11%.

Take `CC1CN(C(=O)CCl)CCCO1` (stereo not drawn) [Compound 22, 2-chloro-1-(2-methyl-1,4-oxazepan-4-yl)ethanone]: the “% inhibition” value is “not active”.

Consider `CC1(C)CCCN(C(=O)CCl)CC1` [Compound 23, 2-chloro-1-(4,4-dimethylazepan-1-yl)ethanone], for which the inhibition at 50 µM was 21%.

As for `O=C(CCl)N1CCC(F)C(O)(C(F)(F)F)CC1` (stereo not drawn) [Compound 24, 2-chloro-1-(5-fluoro-4-hydroxy-4-(trifluoromethyl)azepan-1-yl)ethanone], the “% inhibition” value was “not active”.

Regarding `CCOC(=O)C1(C)CCCCN(C(=O)CCl)C1` (stereo not drawn) [Compound 25, Ethyl 1-(2-chloroacetyl)-3-methylazepane-3-carboxylate], the inhibition at 50 µM is 31%.

On to `CC1(CNC(=O)OCc2ccccc2)CCCCN(C(=O)CCl)C1` (stereo not drawn) [Compound 26, Benzyl ((1-(2-chloroacetyl)-3-methylazepan-3-yl)methyl)carbamate], for which the inhibition at 50 µM turned out to be 70%.

Consider `O=C(NCC1CCCCN(C(=O)CCl)C1)OCc1ccccc1` (stereo not drawn) [Compound 27, Benzyl ((1-(2-chloroacetyl)azepan-3-yl)methyl)carbamate], for which the inhibition at 50 µM came out at 58%.

`CC1CN(C(=O)CCl)CCCC1CNC(=O)OCc1ccccc1` (stereo not drawn) [Compound 28, Benzyl ((1-(2-chloroacetyl)-3-methylazepan-4-yl)methyl)carbamate]: the inhibition at 50 µM came out at 59%.

Turning to `CC1(F)CCCCN(C(=O)CCl)C1` (stereo not drawn) [Compound 29, 2-chloro-1-(3-fluoro-3-methylazepan-1-yl)ethanone], the inhibition at 50 µM is 38%.

As to `O=C(NCC1(O)CCCCN(C(=O)CCl)C1)OCc1ccccc1` (stereo not drawn) [Compound 30, Benzyl ((1-(2-chloroacetyl)-3-hydroxyazepan-3-yl)methyl)carbamate], the inhibition at 50 µM is 50%.

Take `CC1CCCCN(C(=O)CCl)C1` (stereo not drawn) [Compound 31, 2-chloro-1-(3-methylazepan-1-yl)ethanone]: the inhibition at 50 µM was found to be 39%.

For `O=C(CCl)N1CCCCC(O)(CF)C1` (stereo not drawn) [Compound 32, 2-chloro-1-(3-(fluoromethyl)-3-hydroxyazepan-1-yl)ethanone], the inhibition at 50 µM was determined as 17%.

Take `O=C(CCl)N1CCCC(O)(C(F)(F)F)CC1` (stereo not drawn) [Compound 33, 2-chloro-1-(4-hydroxy-4-(trifluoromethyl)azepan-1-yl)ethanone]: the inhibition at 50 µM came out at 32%.

Take `O=C(NCC1(O)CCCN(C(=O)CCl)CC1)OCc1ccccc1` (stereo not drawn) [Compound 34, Benzyl ((1-(2-chloroacetyl)-4-hydroxyazepan-4-yl)methyl)carbamate]: the inhibition at 50 µM turned out to be 14%.

With `CC1(CNC(=O)OCc2ccccc2)CCCN(C(=O)CCl)CC1` (stereo not drawn) [Compound 35, Benzyl ((1-(2-chloroacetyl)-4-methylazepan-4-yl)methyl)carbamate], the inhibition at 50 µM stood at 17%.

Turning to `CC1(F)CCCN(C(=O)CCl)CC1` (stereo not drawn) [Compound 36, 2-chloro-1-(4-fluoro-4-methylazepan-1-yl)ethanone], the inhibition at 50 µM was determined as 34%.

`CC(C)(C)OC(=O)NC1CCCCN(C(=O)CCl)C1` (stereo not drawn) [Compound 37, Tert-butyl (1-(2-chloroacetyl)azepan-3-yl)carbamate]: the inhibition at 50 µM stood at 30%.

Regarding `O=C(NCC1(F)CCCN(C(=O)CCl)CC1)OCc1ccccc1` (stereo not drawn) [Compound 38, Benzyl ((1-(2-chloroacetyl)-4-fluoroazepan-4-yl)methyl)carbamate], the inhibition at 50 µM amounted to 40%.

Regarding `CC1(O)CCCCN(C(=O)CCl)C1` (stereo not drawn) [Compound 39, 2-chloro-1-(3-hydroxy-3-methylazepan-1-yl)ethanone], the inhibition at 50 µM is 20%.

As to `CC1CCN(C(=O)CCl)CCC1(F)F` (stereo not drawn) [Compound 40, 2-chloro-1-(4,4-difluoro-5-methylazepan-1-yl)ethanone], the “% inhibition” value is given as “not active”.

Regarding `CC1CCN(C(=O)CCl)CCC1CNC(=O)OCc1ccccc1` (stereo not drawn) [Compound 41, Benzyl ((1-(2-chloroacetyl)-5-methylazepan-4-yl)methyl)carbamate], the inhibition at 50 µM is 54%.

For the molecule `CC1CCN(C(=O)CCl)CCC1=O` (stereo not drawn) [Compound 42, 1-(2-chloroacetyl)-5-methylazepan-4-one], the inhibition at 50 µM is 32%.

As to `O=C(CCl)N1CCC(F)C(F)(F)CC1` (stereo not drawn) [Compound 43, 2-chloro-1-(4,4,5-trifluoroazepan-1-yl)ethanone], the inhibition at 50 µM amounted to 25%.

As to `O=C(CCl)N1CCCCC(O)C1` (stereo not drawn) [Compound 44, 2-chloro-1-(3-hydroxyazepan-1-yl)ethanone], the inhibition at 50 µM is 13%.

For the molecule `CC1CCN(C(=O)CCl)CCC1O` (stereo not drawn) [Compound 45, 2-chloro-1-(4-hydroxy-5-methylazepan-1-yl)ethanone], the “% inhibition” value is recorded as “not active”.

Turning to `O=C(NC1CCCN(C(=O)CCl)CC1)OCc1ccccc1` (stereo not drawn) [Compound 46, Benzyl (1-(2-chloroacetyl)azepan-4-yl)carbamate], the inhibition at 50 µM was determined as 31%.

Turning to `O=C1CCN(C(=O)CCl)CCC1F` (stereo not drawn) [Compound 47, 1-(2-chloroacetyl)-5-fluoroazepan-4-one], the inhibition at 50 µM stood at 36%.

Take `O=C(CCl)N1CCC(O)C(F)CC1` (stereo not drawn) [Compound 48, 2-chloro-1-(4-fluoro-5-hydroxyazepan-1-yl)ethanone]: the inhibition at 50 µM stood at 7%.

As for `CC1(O)CCCN(C(=O)CCl)CC1` (stereo not drawn) [Compound 49, 2-chloro-1-(4-hydroxy-4-methylazepan-1-yl)ethanone], the inhibition at 50 µM is 9%.

As to `O=C(CCl)N1CCOCC(F)(F)C1` [Compound 50, 2-chloro-1-(6,6-difluoro-1,4-oxazepan-4-yl)ethanone], the inhibition at 50 µM was found to be 17%.
